Square brackets hold non-standard residues; d marks the D form. Peptide text beside a SMILES is read from it. Orn = NCCC[C@H](N)C(=O)O; βAla = NCCC(=O)O
What was measured:
Format in all cases: cell-based, human
BCBL-1 = test: Flow cytometry, cell proliferation (Ki67 staining); conditions: BCBL-1, 24 h
Procedure: (§1) Leukoreduction system chambers (LRS) from healthy donors were purchased from Vitalant. Peripheral blood mononuclear cells (PBMCs) were prepared by a standard Ficoll gradient method. PBMCs along with THP-1 and BCBL-1 cell lines (2 × 10^6 cells/ml, 0.2 ml 10% FBS/RPMI/DMEM per well of a 96-well plate) were treated with various doses (0–256 μM) of either VGN50 peptide or control mutant peptide for 24 h. Cell death, apoptosis, and proliferation were analyzed by flow cytometry (BD Acuri) after intracellular staining with anti-humanKi67-Alexa488 (Biolegend, 1:100) along with the isotype control antibody, annexin-V-FITC with 7-AAD staining (Biolegend) according to the manufacture’s protocol, Live/dead Fixable Red Dead Cell staining kit (Invitrogen) according to the manufacture’s protocol, or MTT assay. Peptides were commercially synthesized (GenScript) with >90% purity with TFA removal. […]
(§2) Isotype control Anti-Ki67 antibody
(§3) S-Figure 3. Flow cytometry analyses […]
(§4) Repr esent at i ve FACS pl ot s wi t h ancest r y gat i ng st r at egy of Ki 67+ popul at i on f or
(§5) BCBL-1 and BC-1 cel l s t r eat ed wi t h PBS wi t h an i sot ype cont r ol ar e shown. Mean +/-SD of
(§6) Ki 67% of t ot al BCBL-1 and BC-1 cel l s anal yzed ar e shown i n Fi g. 2e.

BC-1 = test: Flow cytometry, cell proliferation (Ki67 staining); conditions: BC-1, 24 h
Procedure: as §1, §2, §3, §4, §5, §6

[1] = test system: MYC promoter and putative enhancer regions; test: CUT&RUN qPCR, coactivator complex recruitment (PolII, BRD4, SMARCA4)
Source text: We next examined the molecular mechanism of MYC down-regulation by VGN50. We first utilized Cleavage under targets & release using nuclease (CUT&RUN)-sequencing to examine histone modifications that are known to be associated with enhancers in order to map putative MYC enhancer regions in PEL cells (Fig. 5a). Genome-wide CUT&RUN studies identified putative enhancer and promoter regulatory regions that are marked by H3K27Ac, H3K4me1, POLR2A (RNAPII), BRD4, and SMARCC1, a component of the SWI/SNF complex (Fig. 1b and 5a). The identified putative MYC enhancers were also in good agreement with previous ChIP Hi-C[53] and ChIP-seq data sets[54]. Specific primer pairs were then designed to amplify the respective enhancer regions and to examine regulation of coactivator complex recruitment by VGN50.
Fig. 5 A molecular mechanism of VGN50-mediated MYC-down-regulation. a Cleavage under targets & release using nuclease (CUT&RUN). CUT&RUN was performed with BCBL-1 and BC-1 with the indicated antibodies. Enrichment of active histone modifications, and occupancies of RNAPII and SWI/SNF components at the MYC genomic region are shown as peaks. One of the biological duplicate samples for the BCBL-1 cell line is presented. […] The MYC promoter, enhancer, and negative control regions used for qPCR analyses are indicated with shading. The positions of the MYC coding region, CASC11 coding region, and long non-coding RNA, PVT1, MIR1208 are shown in the panel. b VGN50 inhibits coactivator complex recruitment and c reduces H3K27Ac modification. qPCR is used to examine enrichment of DNA fragments in the presence of VGN50 or mutant peptide (24 μM). Peptide was applied 1 h prior to processing samples for CUT&RUN to replicate SLAM-seq experimental conditions. Non-specific IgG control was also included and enrichment with IgG control at each genomic region was set as 1 for b, and spiked-in luciferase plasmid DNA was used for additional internal control for c. d Formation of a larger protein complex with VGN50. Sucrose gradient sedimentation was used to monitor changes in protein complex formation in the presence of VGN50. The experiment flow chart is shown at the top of this panel. Fractions were collected from top (#1) to bottom (#23/24). Sample #24 without peptide is a smaller fraction of residual samples. Immunoblotting was performed on the odd number samples and the remaining fraction (#24 for no peptide sample) and probed with Flag-tagged SWI/SNF components (SMARCA4, SMARCC2, and SMARCB1). The position of each protein component based on molecular size is indicated. e KSHV K-Rta colocalizes with SWI/SNF components in reactivating BCBL-1 cells. TREx-BCBL-1 cells were triggered for reactivation by treatment with Dox and TPA for 28 h and stained with the indicated antibodies. Images were acquired with Keyence fluorescence microscopy. f A model for VGN50 molecular action. A model depicting the putative molecular action of VGN50 is presented. Coactivator complexes are dynamically assembled on enhancer and promoter regions via transcription factor binding. VGN50, an IDR fragment derived from an exceptionally potent viral transactivator, flexibly interacts with components of coactivators and traps them, thus reduces the available resources for cellular enhancers to activate MYC promoters.
CUT&RUN[72] was performed essentially by following the online protocol developed by Dr. Henikoff’s lab with a few modifications to fit our needs. Cells were washed with PBS and wash buffer [20 mM HEPES-KOH pH 7.5, 150 mM NaCl, 0.5 mM Spermidine (Sigma, S2626), and proteinase inhibitor (Roche)]. After removing the wash buffer, cells were captured on magnetic concanavalin A (ConA) beads (Polysciences, PA, USA) in the presence of CaCl2. […]

[2] = MYC region E1, peptide 24 μM 1 h, IgG set as 1, replicate 1
[3] = MYC region E1, peptide 24 μM 1 h, IgG set as 1, replicate 2
[4] = MYC region E1, peptide 24 μM 1 h, IgG set as 1, replicate 3
[5] = MYC region E2, peptide 24 μM 1 h, IgG set as 1, replicate 1
[6] = MYC region E2, peptide 24 μM 1 h, IgG set as 1, replicate 2
[7] = MYC region E2, peptide 24 μM 1 h, IgG set as 1, replicate 3
[8] = MYC region E3, peptide 24 μM 1 h, IgG set as 1, replicate 1
[9] = MYC region E3, peptide 24 μM 1 h, IgG set as 1, replicate 2
[10] = MYC region E3, peptide 24 μM 1 h, IgG set as 1, replicate 3
[11] = MYC region P1, peptide 24 μM 1 h, IgG set as 1, replicate 1
[12] = MYC region P1, peptide 24 μM 1 h, IgG set as 1, replicate 2
[13] = MYC region P1, peptide 24 μM 1 h, IgG set as 1, replicate 3
[14] = Myc Control region, peptide 24 μM 1 h, IgG set as 1, replicate 1
[15] = Myc Control region, peptide 24 μM 1 h, IgG set as 1, replicate 2
[16] = Myc Control region, peptide 24 μM 1 h, IgG set as 1, replicate 3

CC(C)C[C@H](NC(=O)CCNC(=O)[C@H](CCCNC(=N)N)NC(=O)[C@H](CCCNC(=N)N)NC(=O)[C@H](CCCNC(=N)N)NC(=O)[C@H](CCCN)NC(=O)[C@H](CCCNC(=N)N)NC(=O)[C@H](CCCNC(=N)N)NC(=O)[C@H](CCCCN)NC(=O)[C@H](CCCCN)NC(=O)[C@H](N)CCCNC(=N)N)C(=O)N[C@@H](CO)C(=O)N[C@@H](CO)C(=O)N[C@@H](C)C(=O)N[C@@H](C)C(=O)N[C@@H](C)C(=O)NCC(=O)N[C@@H](CC(C)C)C(=O)N[C@@H](Cc1ccc(O)cc1)C(=O)N[C@@H](CCC(N)=O)C(=O)N[C@@H](CC(C)C)C(=O)N[C@@H](CC(=O)O)C(=O)N[C@H](C(=O)O)[C@@H](C)O [Mt-P] (H-[dR]KKRR[Orn]RRR[βAla]LSSAAAGLYQLDT-OH; N-terminus and C-terminus assumed)
Ki67% (BCBL-1; replicate 1): 33.8765%
Ki67% (BCBL-1; replicate 2): 32.9445%
Ki67% (BCBL-1; replicate 3): 29.2345%
Ki67% (BC-1; replicate 1): 43.3912%
Ki67% (BC-1; replicate 2): 42.2259%
Ki67% (BC-1; replicate 3): 43.3434%
BRD4 enrichment, CUT&RUN qPCR [1, 2]: 3.57
PolII enrichment, CUT&RUN qPCR [1, 2]: 2.89
SMARCA4 enrichment, CUT&RUN qPCR [1, 2]: 1.44
BRD4 enrichment, CUT&RUN qPCR [1, 3]: 3.47
PolII enrichment, CUT&RUN qPCR [1, 3]: 2.18
SMARCA4 enrichment, CUT&RUN qPCR [1, 3]: 1.11
BRD4 enrichment, CUT&RUN qPCR [1, 4]: 3.30
PolII enrichment, CUT&RUN qPCR [1, 4]: 2.41
SMARCA4 enrichment, CUT&RUN qPCR [1, 4]: 1.32
BRD4 enrichment, CUT&RUN qPCR [1, 5]: 6.92
PolII enrichment, CUT&RUN qPCR [1, 5]: 9.68
SMARCA4 enrichment, CUT&RUN qPCR [1, 5]: 2.57
BRD4 enrichment, CUT&RUN qPCR [1, 6]: 6.75
PolII enrichment, CUT&RUN qPCR [1, 6]: 10.09
SMARCA4 enrichment, CUT&RUN qPCR [1, 6]: 2.47
BRD4 enrichment, CUT&RUN qPCR [1, 7]: 7.28
PolII enrichment, CUT&RUN qPCR [1, 7]: 9.27
SMARCA4 enrichment, CUT&RUN qPCR [1, 7]: 2.05
BRD4 enrichment, CUT&RUN qPCR [1, 8]: 7.28
PolII enrichment, CUT&RUN qPCR [1, 8]: 10.61
SMARCA4 enrichment, CUT&RUN qPCR [1, 8]: 2.01
BRD4 enrichment, CUT&RUN qPCR [1, 9]: 6.68
PolII enrichment, CUT&RUN qPCR [1, 9]: 9.91
SMARCA4 enrichment, CUT&RUN qPCR [1, 9]: 2.39
BRD4 enrichment, CUT&RUN qPCR [1, 10]: 7.58
PolII enrichment, CUT&RUN qPCR [1, 10]: 10.57
SMARCA4 enrichment, CUT&RUN qPCR [1, 10]: 1.42
BRD4 enrichment, CUT&RUN qPCR [1, 11]: 8.00
PolII enrichment, CUT&RUN qPCR [1, 11]: 18.06
SMARCA4 enrichment, CUT&RUN qPCR [1, 11]: 2.48
BRD4 enrichment, CUT&RUN qPCR [1, 12]: 8.20
PolII enrichment, CUT&RUN qPCR [1, 12]: 18.31
SMARCA4 enrichment, CUT&RUN qPCR [1, 12]: 2.51
BRD4 enrichment, CUT&RUN qPCR [1, 13]: 7.99
PolII enrichment, CUT&RUN qPCR [1, 13]: 17.86
SMARCA4 enrichment, CUT&RUN qPCR [1, 13]: 2.36
BRD4 enrichment, CUT&RUN qPCR [1, 14]: 2.07
PolII enrichment, CUT&RUN qPCR [1, 14]: 2.07
SMARCA4 enrichment, CUT&RUN qPCR [1, 14]: 1.30
BRD4 enrichment, CUT&RUN qPCR [1, 15]: 1.88
PolII enrichment, CUT&RUN qPCR [1, 15]: 1.88
SMARCA4 enrichment, CUT&RUN qPCR [1, 15]: 1.17
BRD4 enrichment, CUT&RUN qPCR [1, 16]: 1.71
PolII enrichment, CUT&RUN qPCR [1, 16]: 1.71
SMARCA4 enrichment, CUT&RUN qPCR [1, 16]: 1.15
